Values of other authors in US12090144B2, “Photocurable hydrogel loaded with VH298-modified exosome and method of preparation and use thereof” (Chinese PLA General Hospital, priority 2022, dated 2024).

Details: background statement

Cc1ncsc1-c1ccc(CNC(=O)[C@@H]2C[C@@H](O)CN2C(=O)[C@@H](NC(=O)C2(C#N)CC2)C(C)(C)C)cc1 [VH298]
water solubility: poor water solubility
